Broadly, the pIC50 is the negative decadic logarithm of the IC50, by convention in mol/L. A higher pIC50 goes with a small IC50.

This passage reports IC50 results from patent publication US11459340B2, “Tri-substituted heteroaryl derivatives as Src homology-2 phosphatase inhibitors” (Nikang Therapeutics, Inc., priority 2018, dated 2022).

pIC50: −log10 of the molar value.

Chain of SHP2 (Q06124 whole entry, the tested form may be a part): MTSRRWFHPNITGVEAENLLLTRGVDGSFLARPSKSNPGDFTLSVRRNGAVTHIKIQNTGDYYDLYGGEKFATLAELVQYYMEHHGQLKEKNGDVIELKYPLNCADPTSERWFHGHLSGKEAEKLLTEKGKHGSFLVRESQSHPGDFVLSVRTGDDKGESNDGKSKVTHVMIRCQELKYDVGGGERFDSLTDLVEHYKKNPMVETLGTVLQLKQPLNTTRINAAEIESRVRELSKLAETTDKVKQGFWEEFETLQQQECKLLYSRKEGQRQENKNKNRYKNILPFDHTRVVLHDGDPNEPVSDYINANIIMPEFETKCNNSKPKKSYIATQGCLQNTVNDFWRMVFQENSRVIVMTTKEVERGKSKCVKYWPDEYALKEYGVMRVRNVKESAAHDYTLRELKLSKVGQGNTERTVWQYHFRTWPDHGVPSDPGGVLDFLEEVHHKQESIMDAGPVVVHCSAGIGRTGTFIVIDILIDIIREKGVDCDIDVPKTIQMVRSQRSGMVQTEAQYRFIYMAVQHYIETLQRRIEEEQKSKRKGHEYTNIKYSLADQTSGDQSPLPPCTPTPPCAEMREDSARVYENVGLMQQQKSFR

The test addresses SHP2 (Homo sapiens (Human), UniProt Q06124). Description: SHP2 Allosteric Inhibition Assay (DiFMUP substrate, bisphos-IRS1 peptide activation). The test is classed as biochemical. The settings on record: 0.5 μM bisphos-IRS1 peptide, 100 uM DiFMUP, room temperature. The method, then: At the basal state, SHP2 is auto-inhibited and access of substrates to the catalytic site is blocked by the […] interactions between the SH2 domains and the PTP domain. When bis-tyrosyl-phosphorylated peptides bind to SH2 domain of SHP2, the PTP domain becomes available for substrate recognition and reaction catalysis and SHP2 is allosterically activated. SHP2 catalytic activity can be measured using a fluorogenic artificial substrate DiFMUP.
The phosphatase reactions were carried out at room temperature in 384-well black polystyrene plates (Greiner Bio-One, Cat #784076) using assay buffers containing 60 mM HEPES, pH 7.2, 75 mM NaCl, 75 mM KCl, 1 mM EDTA, 0.05% P-20, and 5 mM DTT.
0.33 nM of […] was co-incubated with of 0.5 μM of bisphos-IRS 1 peptide (sequence: H2N-LN(pY)IDLDLV(dPEG8)LST(pY)ASINFQK-amide) and various concentrations of compounds for 30-60 min at room temperature. Then the reaction was initiated by addition of the surrogate substrate DiFMUP (Invitrogen, Cat #D6567, 100 uM final).
The real-time conversion of DiFMUP to DiFMU (6,8-difluoro-7-hydroxyl-4-methyl-coumarin) was measured every 5 min for 30 min using a microplate reader (CLARIOstar, BMG Labtech) with excitation and emission wavelengths of 340 nm and 450 nm, respectively. Initial reaction rates were determined by linear fitting of the data and the inhibitor dose response curves were analyzed using normalized IC50 regression curve fitting with control based normalization.
In turn, `C[C@@H]1OCC2(CCN(c3ncc(Sc4ccnc5c4OC[C@@H]4C[C@H](F)CN54)nc3CO)CC2)[C@@H]1N` [Compound 14, (3-((3S,4S)-4-amino-3-methyl-2-oxa-8-azaspiro[4.5]decan-8-yl)-6-(((6aS,8S)-8-fluoro-6a,7,8,9-tetrahydro-6H-pyrido[3,2-b]pyrrolo[1,2-d] [1,4]oxazin-4-yl)thio)pyrazin-2-yl)methanol] had a pIC50 of 7.89. Compound `C[C@@H]1OCC2(CCN(c3ncc(Sc4ccnc5c4OC[C@@H]4C[C@H](O)CN54)nc3CO)CC2)[C@@H]1N` [Compound 18, (6aS,8S)-4-((5-((3S,4S)-4-amino-3-methyl-2-oxa-8-azaspiro[4.5]decan-8-yl)-6-(hydroxymethyl)pyrazin-2-yl)thio)-6a,7,8,9-tetrahydro-6H-pyrido[3,2-b]pyrrolo[1,2-d][1,4] oxazin-8-ol] had a pIC50 of 8.22. This pIC50 is 0.33 log units higher than that of the compound before. The compound `C[C@@H]1OCC2(CCN(c3ncc(Sc4ccnc5c4OC[C@@H]4C[C@@H](F)CN54)nc3CO)CC2)[C@@H]1N` [Compound 15, (3-((3S,4S)-4-amino-3-methyl-2-oxa-8-azaspiro[4.5]decan-8-yl)-6-(((6aS,8R)-8-fluoro-6a,7,8,9-tetrahydro-6H-pyrido[3,2-b]pyrrolo[1,2-d] [1,4]oxazin-4-yl)thio)pyrazin-2-yl)methanol] showed a pIC50 of 8.30. The value for `CO[C@H]1C[C@H]2COc3c(Sc4cnc(N5CCC6(CC5)CO[C@@H](C)[C@H]6N)c(CO)n4)ccnc3N2C1` [Compound 16, (3-((3S,4S)-4-amino-3-methyl-2-oxa-8-azaspiro[4.5]decan-8-yl)-6-(((6aS,8S)-8-methoxy-6a,7,8,9-tetrahydro-6H-pyrido[3,2-b]pyrrolo[1,2-d][1,4]oxazin-4-yl)thio)pyrazin-2-yl)methanol] was 8.10; that for `C[C@@H]1OCC2(CCN(c3ncc(Sc4ccnc5c4OC[C@@H]4C[C@@H](O)CN54)nc3CO)CC2)[C@@H]1N` [Compound 19, (6aS,8R)-4-((5-((3S,4S)-4-amino-3-methyl-2-oxa-8-azaspiro[4.5]decan-8-yl)-6-(hydroxymethyl)pyrazin-2-yl)thio)-6a,7,8,9-tetrahydro-6H-pyrido[3,2-b]pyrrolo[1,2-d][1,4]oxazin-8-ol] was 8.10; that for `C[C@@H]1OCC2(CCN(c3ncc(Sc4ccnc5c4OC[C@@H]4C[C@H](O[C@@H]6CCOC6)CN54)nc3CO)CC2)[C@@H]1N` [Compound 28, (3-((3S,4S)-4-amino-3-methyl-2-oxa-8-azaspiro[4.5]decan-8-yl)-6-(((6aS,8S)-8-(((R)-tetrahydrofuran-3-yl)oxy)-6a,7,8,9-tetrahydro-6H-pyrido[3,2-b]pyrrolo[1,2-d][1,4]oxazin-4-yl)thio)pyrazin-2-yl)methanol] was 7.92.
